Measured values: patent publication US8183292B2, “Chiral cyclic β-amino acids and their derivatives, pharmaceutical compositions containing them and the use of such compounds” (BioBlocks Magyarorszag Gyogyszerkemiai es Fejleszto Kft., priority 2006, dated 2012)
Values belong to the compound of their own block, whether it stands above or below them.

What was measured:
P-glycoprotein = assay: Reversal of multidrug resistance: rhodamine 123 accumulation in human mdr1 transfected L5178 mouse T-cell lymphoma cells (flow cytometry); format: cell-based; details: for Multidrug resistance reversing effect (in words): 4 and 40 μg/mL, at higher concentration multiple of fluorescence activity of Verapamil; for Vrel = effect related to Verapamil: Verapamil at 10 μg/ml; for R = ratio of fluorescence and activity / R (activity ratio, fluorescence): rhodamine 123; for R: Table 4 concentration series
Procedure: L5178 mouse T-cell lymphoma cells were transfected with pHa MDR1/A retrovirus, by the method as described by J. L. Weaver [J. L. Weaver, G. Szabó, P. S. Pine, M. M. Gottesmann, S. Goldenberg and A. Aszalos: The effect of ion channel blockers, immunosuppressive agents and other drugs on the activity of the multidrug transporter. Int. […] Mdr-1-expressing cell lines were selected by culturing the transfected cells with 60 ng/mL of colchicine to maintain the expression of the MDR phenotype. L5178 (parent) mouse T-cell lymphoma cells and the human mdr1 transfected subline were cultured in McCoy's 5A medium supplemented with 10% by mass of heath-inactivated horce serum, L-glutamine and antibiotics. Both cell lines were cultured at 37° C. The mouse lymphoma cell line was maintained in a 5% CO2 atmosphere.
The assays were carried out by the method as described by J. Molnár et al. [J. Molnár, I. Mucsi, J. Nacsa, A. Hevér, N. Gyémánt, K. Ugocsai, P. Hegyes, S. Kiessig, D. Gaal, H. Lage and A. Varga: New silicon compounds as resistance modifiers against multidrug-resistant cells. […] The cell density was set to a value of 2×10^6/mL, then the cells were resuspended in a serum-free McCoy's 5A medium and divided in aliquots of 0.5 mL in Eppendorf centrifuge tubes. The tested compounds were added in different concentrations to different volumes (2.0-20.0 μL) of 1.0-10.0 mg/mL stock solutions and the samples were incubated for 10 minutes at room temperature. […] The fluorescence of the cell population was measured with a Beckton Dickinson FACScan flow cytometer. […] The percentage value of the mean fluorescence intensity was calculated for the treated MDR and for the parental cell lines as compared with the values obtained with the untreated cells. The activity ratio (R) was calculated on the basis of the measured fluorescence values by the following equation: […]

[1] = test system: MRC-5 human fibroblast cell lines; assay: Cytotoxicity on MRC-5 human fibroblast cell lines (Alamar Blue/resazurine, 24 h); format: cell-based; details: MRC-5 cells, 24 hours incubation, 1% DMSO
Procedure: The toxic effect of the compounds was measured on MRC-5 human fibroblast cell lines in accordance with the method that has been described in the article published by Molnár et al. [L. Molnár, G. M. Keserü, Á. Papp, Z. Lörincz, G. Ambrus és F. Darvas.: A neural network based classification scheme for cytotoxicity predictions: Validation on 30,000 compounds, Bioorg. Med. Chem. Lett. 16(4), 1037-9 (2006)]. The cells were incubated for a cell cycle (24 hours) with solutions of various concentrations prepared from the compounds, in the presence of 1% of DMSO. 3 parallel measurements were carried out with 6 different concentrations. The ratio of the viable cells was determined by reducing the Alamaar Blue (resazurine) reagent that was followed fluorimetrically. The measured materials were not toxic on the given cell line in a concentration of 128 μmol after incubation for one day.
In the following Table 1 the cytotoxicity of some compounds according to the invention is given.

Structure (SMILES): CC(C)(C)OC(=O)N1C(=O)[C@H]2C[C@H]3C[C@@H]([C@H]21)C3(C)C [Compound 11, (1R ,2R,5S,7R)-N-tert-Butoxycarbonyl-8,8-Dimethyl-3-Azatricyclo[5.1.1.0^2,5]-Nonan-4-One]
melting point: 64 to 66 °C

Structure (SMILES): CCOC(=O)[C@H](Cc1ccccc1)NC(=O)[C@@H]1C[C@@H]2C[C@H]([C@@H]1NC(=O)OC(C)(C)C)C2(C)C [Compound 38]
Vrel = effect related to Verapamil (P-glycoprotein; Table 2, 4 μg/ml): 0.79
R (activity ratio, fluorescence) (P-glycoprotein; Table 2, 4 μg/ml): 2.33
Vrel = effect related to Verapamil (P-glycoprotein; Table 2, 40 μg/ml): 6.73
R (activity ratio, fluorescence) (P-glycoprotein; Table 2, 40 μg/ml): 19.92
Survival (%) [c = 128 μM] [1]: 125.3%

Structure (SMILES): CCOC(=O)[C@@H]1C[C@H]2C[C@@H]([C@H]1NC(=S)NCCc1ccc(OC)c(OC)c1)C2(C)C [Compound 51, (1R,2R,3R,5R)-1-(3-Ethoxycarbonyl-6,6-Dimethylbicyclo[3.1.1]Heptan-2-yl)-3-(3,4-Dimethoxyphenyl-Ethyl)-Thiourea]
Multidrug resistance reversing effect (in words) (P-glycoprotein): significant dose-dependent effect
Vrel = effect related to Verapamil (P-glycoprotein; Table 2, 4 μg/ml): 2.70
R (activity ratio, fluorescence) (P-glycoprotein; Table 2, 4 μg/ml): 13.29
Vrel = effect related to Verapamil (P-glycoprotein; Table 2, 40 μg/ml): 9.96
R (activity ratio, fluorescence) (P-glycoprotein; Table 2, 40 μg/ml): 49.02

Structure (SMILES): CCOC(=O)[C@H]1C[C@@H]2C[C@H]([C@@H]1NC(=S)Nc1cccc(OC)c1)C2(C)C [Compound 55, (1S,2S,3S,5S)-1-(3-Ethoxycarbonyl-6,6-Dimethylbicyclo[3.1.1]Heptan-2-yl)-3-(3-Methoxyphenyl)-Thiourea]
Vrel = effect related to Verapamil (P-glycoprotein; Table 2, 4 μg/ml): 0.62
R (activity ratio, fluorescence) (P-glycoprotein; Table 2, 4 μg/ml): 3.07
Vrel = effect related to Verapamil (P-glycoprotein; Table 2, 40 μg/ml): 2.44
R (activity ratio, fluorescence) (P-glycoprotein; Table 2, 40 μg/ml): 11.99
Survival (%) [c = 128 μM] [1]: 214.1%

Structure (SMILES): CC1(C)[C@@H]2C[C@H](C(=O)O)[C@@H](NC(=O)OCC3c4ccccc4-c4ccccc43)[C@H]1C2 [Compound 41, (1S,2S,3S,5S)-2-(9H-Fluoren-9-yl-Methoxycarbonylamino)-6,6-Dimethylbicyclo[3.1.1]Heptan-3-Carboxylic Acid]
Vrel = effect related to Verapamil (P-glycoprotein; Table 3, 4 μg/ml): 0.07
R = ratio of fluorescence and activity (P-glycoprotein; Table 3, 4 μg/ml): 0.86
Vrel = effect related to Verapamil (P-glycoprotein; Table 3, 40 μg/ml): 0.11
R = ratio of fluorescence and activity (P-glycoprotein; Table 3, 40 μg/ml): 1.25

Structure (SMILES): CCOC(=O)[C@H](Cc1ccccc1)NC(=O)[C@H]1C[C@H]2C[C@@H]([C@H]1NC(=O)OC(C)(C)C)C2(C)C [Compound 17]
Vrel = effect related to Verapamil (P-glycoprotein; Table 3, 4 μg/ml): 1.58
R = ratio of fluorescence and activity (P-glycoprotein; Table 3, 4 μg/ml): 23.1
Vrel = effect related to Verapamil (P-glycoprotein; Table 3, 40 μg/ml): 6.45
R = ratio of fluorescence and activity (P-glycoprotein; Table 3, 40 μg/ml): 94.24

Structure (SMILES): CCOC(=O)[C@H]1C[C@@H]2C[C@H]([C@@H]1NC(=O)Nc1ccc(Cl)cc1)C2(C)C [Compound 56, (1S,2S,3S,5S)-1-(3-Ethoxycarbonyl-6,6-Dimethylbicyclo[3.1.1]Heptan-2-yl)-3-(4-Chlorophenyl)-Urea]
Multidrug resistance reversing effect (in words) (P-glycoprotein): significant dose-dependent effect
Vrel = effect related to Verapamil (P-glycoprotein; Table 3, 4 μg/ml): 0.14
R = ratio of fluorescence and activity (P-glycoprotein; Table 3, 4 μg/ml): 1.57
Vrel = effect related to Verapamil (P-glycoprotein; Table 3, 40 μg/ml): 3.43
R = ratio of fluorescence and activity (P-glycoprotein; Table 3, 40 μg/ml): 39.39
Survival (%) [c = 128 μM] [1]: 116.8%

Structure (SMILES): CCOC(=O)[C@@H]1C[C@@H]2C[C@H]([C@@H]1NC(=S)Nc1cccc(OC)c1)C2(C)C [Compound 54, (1S,2S,3R,5S)-1-(3-Ethoxycarbonyl-6,6-Dimethylbicyclo[3.1.1]Heptan-2-yl) -3-(3-Methoxyphenyl)-Thiourea]
Vrel = effect related to Verapamil (P-glycoprotein; Table 2, 4 μg/ml): 0.48
R (activity ratio, fluorescence) (P-glycoprotein; Table 2, 4 μg/ml): 2.37
Vrel = effect related to Verapamil (P-glycoprotein; Table 2, 40 μg/ml): 5.36
R (activity ratio, fluorescence) (P-glycoprotein; Table 2, 40 μg/ml): 26.35

Structure (SMILES): CC1(C)[C@H]2C[C@@H]3C(=O)N[C@@H]3[C@@H]1C2 [Compound 10, (1R,2R,5S,7R)-8,8-Dimethyl-3-Azatricyclo[5.1.1.0^2,5]Nonan-4-One]
melting point: 68 to 72 °C

Second part, led by results:

melting point: 270 °C
Structure (SMILES): CC1(C)[C@H]2C[C@H](C(=O)O)[C@H](N)[C@@H]1C2 [Compound 13, (1R,2R,3S,5R)-2-Amino-6,6-Dimethylbicyclo[3.1.1]Heptan-3-Carboxylic Acid]

melting point: 109 to 112 °C
Structure (SMILES): CCOC(=O)[C@H]1C[C@H]2C[C@@H]([C@H]1N(Cc1ccccc1)C(=S)Nc1cccc(OC)c1)C2(C)C [Compound 47, (1R,2R,3S,5R)-1-Benzyl-1-(3-Ethoxycarbonyl-6,6-Dimethylbicyclo[3.1.1]Heptan-2-yl)-3-(3-Methoxyphenyl)-Thiourea]
Effect in concentration series (in words) (P-glycoprotein; 0.04, 0.08, 0.4, 0.8 and 4 μg/mL): Dose-dependence was observed
Multidrug resistance reversing effect (in words) (P-glycoprotein): significant dose-dependent effect
Vrel = effect related to Verapamil (P-glycoprotein; Table 3, 4 μg/ml): 3.02
R = ratio of fluorescence and activity (P-glycoprotein; Table 3, 4 μg/ml): 34.76
Vrel = effect related to Verapamil (P-glycoprotein; Table 3, 40 μg/ml): 3.07
R = ratio of fluorescence and activity (P-glycoprotein; Table 3, 40 μg/ml): 35.35
R (P-glycoprotein; 0.04 μg/ml): 1.44
R (P-glycoprotein; 0.08 μg/ml): 1.60
R (P-glycoprotein; 0.4 μg/ml): 6.03
R (P-glycoprotein; 0.8 μg/ml): 7.16
R (P-glycoprotein; 4 μg/ml): 35.20
Concentration sufficient for a significant P-glycoprotein-inhibiting effect (P-glycoprotein; concentration series 0.04-4 μg/mL): 0.4 µg/mL
Multidrug resistance reversing effect at lower concentrations (in words) (P-glycoprotein; lower concentration (4 μg/mL), similar values at higher concentration, indicating saturation): considerable multidrug resistance reversing effect
Survival (%) [c = 128 μM] [1]: 97.7%

melting point: 170 to 171 °C
Structure (SMILES): CCOC(=O)[C@H]1C[C@H]2C[C@@H]([C@H]1NC(=O)Nc1ccc(Cl)cc1)C2(C)C [Compound 45, (1R,2R,3S,5R)-1-(3-Ethoxycarbonyl-6,6-Dimethylbicyclo[3.1.1]Heptan-2-yl) -3-(4-Chlorophenyl)-Urea]
Vrel = effect related to Verapamil (P-glycoprotein; Table 2, 4 μg/ml): 1.52
R (activity ratio, fluorescence) (P-glycoprotein; Table 2, 4 μg/ml): 7.46
Vrel = effect related to Verapamil (P-glycoprotein; Table 2, 40 μg/ml): 2.21
R (activity ratio, fluorescence) (P-glycoprotein; Table 2, 40 μg/ml): 10.89
Survival (%) [c = 128 μM] [1]: 176.7%

melting point: 250 to 252 °C
Structure (SMILES): CC1(C)[C@H]2C[C@@H](C(=O)O)[C@H](N)[C@@H]1C2 [Compound 29, (1R,2R,3R,5R)-2-Amino-6,6-Dimethylbicyclo[3.1.1]Heptan-3-Carboxylic Acid]

melting point: 167 to 169 °C
Structure (SMILES): CCOC(=O)[C@@H]1C[C@H]2C[C@@H]([C@H]1NC(=O)Nc1ccc(Cl)cc1)C2(C)C [Compound 50, (1R,2R,3R,5R)-1-(3-Ethoxycarbonyl-6,6-Dimethylbicyclo[3.1.1]Heptan-2-yl)-3-(4-Chlorophenyl)-Urea]
Multidrug resistance reversing effect (in words) (P-glycoprotein): significant dose-dependent effect
Vrel = effect related to Verapamil (P-glycoprotein; Table 3, 4 μg/ml): 0.16
R = ratio of fluorescence and activity (P-glycoprotein; Table 3, 4 μg/ml): 1.87
Vrel = effect related to Verapamil (P-glycoprotein; Table 3, 40 μg/ml): 3.70
R = ratio of fluorescence and activity (P-glycoprotein; Table 3, 40 μg/ml): 42.58
Survival (%) [c = 128 μM] [1]: 167.6%

melting point: 104 to 105 °C
Structure (SMILES): CNC(=O)[C@H]1[C@@H](NC(=O)OC(C)(C)C)C[C@H]2C[C@H]1C2(C)C [Compound 12, tert-Butyl (1R,2R,3S,5R)-(2-Methylaminocarbonyl-6,6-Dimethylbicyclo[3.1.1]-Hept-3-yl)Carbamate]

melting point: 160 to 162 °C
Structure (SMILES): COC(=O)N(C1c2ccccc2-c2ccccc21)[C@H]1[C@@H](C(=O)O)C[C@H]2C[C@@H]1C2(C)C [Compound 18, (1R,2R,3S,5R)-2-(9H-Fluoren-9-yl-Methoxycarbonylamino)-6,6-Dimethylbicyclo[3.1.1]Heptan-3-Carboxylic Acid]

melting point: 155 to 157 °C
Structure (SMILES): COC(=O)N(C1c2ccccc2-c2ccccc21)[C@H]1[C@H](C(=O)O)C[C@H]2C[C@@H]1C2(C)C [Compound 30, (1R,2R,3R,5R)-2-(9H-Fluoren-9-yl-Methoxycarbonylamino)-6,6-Dimethylbicyclo[3.1.1]Heptan-3-Carboxylic Acid]

melting point: 202 to 205 °C
Structure (SMILES): CCOC(=O)[C@H]1C[C@H]2C[C@@H]([C@H]1N(Cc1ccccc1)C(=O)Nc1ccc(Cl)cc1)C2(C)C [Compound 48, (1R,2R,3S,5R)-1-Benzyl-1-(3-Ethoxycarbonyl-6,6-Dimethylbicyclo[3.1.1]Heptan-2-yl)-3-(4-Chlorophenyl)-Urea]
